Source: US20260144798A1, “Disruption of Vascular Smooth Muscle Relaxation by Carfilzomib May be the Primary Reason for CFZ-Induced Vascular Dysfunction” (AMGEN INC., priority 2019, published 2026)

Legend:
rat aortic rings [1] = assay: Nifedipine-induced relaxation of rat aortic rings; conditions: pretreatment of aortic rings with CFZ (FIG. 2C)
Experimental: (§1) An isometric myograph (DMT 620M) was used for ex vivo measurement of vascular function. Eight-to 10-week old Sprague Dawley rats (purchased from Charles River Laboratories, Wilmington, MA) were first anesthetized with 3% isoflurane and then euthanized using inhaled desflurane. The aortas were isolated in an ice-cold, oxygenated (95% O2, 5% CO2) Krebs-Henseleit buffer (118.3 mM NaCl, 4.7 mM KCl, 1.2 mM MgSO4, 1.2 mM KH2PO4, 2.5 mM CaCl2, 25 mM NaHCO3, and 11.0 mM glucose; purchased from Sigma-Aldrich, St. Louis, MO). […] The tension of the aortic rings was continuously measured with the Lab Chart 7 data acquisition system (ADInstruments, Colorado Springs, CO). […]
(§2) To assess the effect of CFZ on vascular contraction, the aortic rings were pre-treated with or without CFZ for 2 hours, followed by treatment with an increasing concentration of phenylephrine (PE) from 10 nM to 1 μM. […] The contraction was continuously measured and plotted as percent contraction normalized to the response of KPSS. […] The relaxation was continuously measured and plotted as percent relaxation normalized to the response with 1 μM PE.

rat aortic rings [2] = assay: Angiotensin induced contraction (AUC) of rat aortic rings; conditions: LNAME+indomethacin, 2.7 μM CFZ 1.5 hour, 30 nM Angiotensin 30 min (FIG. 11)
Experimental: Aortas were isolated from 8-10 week old CD® (Sprague Dawley) rats (from Charles River Laboratories) in an ice-cold, oxygenated (95% O2, 5% CO2) Krebs-Henseleit buffer. The aortas were then carefully cleaned to remove perivascular fat and cut into 2-mm rings that were mounted between two stainless steel wires in the myograph chamber containing 8 mL of Krebs-Henseleit buffer in 95% O2 and 5% CO2 at 37° C. Rings were stretch until a final stretch of 10 mN (Newton) was reached and incubated for 30 mins for equilibration. The rings were constricted with 8 mL of 80 mM KPSS for 15 minutes, followed by 3 washes with the Krebs-Henseleit buffer until the force returned to the baseline stretch. The aorta were then treated for one of the following experiments: • For protein expression studies the aortic rings were pre-treated with 100 μM N(gamma)-nitro-L-arginine methyl ester (L-NAME; Sigma-Aldrich) and 10 μM indomethacin for 10 minutes prior to the pre-incubation with CFZ (Amgen Inc.) for 1.5 hours.
Following the two incubation the rings were treated with either vehicle or 2.7 μM CFZ for further 1.5 hours before addition of 30 nM Angiotensin for 30 min. Angiotensin induced transient contraction which returned to the baseline in 30 mins. Area Under the Curve (AUC) of angiotensin induced contraction was measured.
Aortic rings were incubated for 10 min with 100 μM LNAME+10 μM indomethacin (endothelium derived relaxing agents blockers) for 10 mins followed by addition of 10 μM SB 203580 (p38 inhibitor) or PF3644022 (MAPKAPK-2 inhibitor) in some rings for 10 more mins as indicated. This was followed by addition of 2.7 μM CFZ in some rings as indicated for 1.5 hour. 30 nM Angiotensin was added for 30 min. Angiotensin induced transient contraction which returned to the baseline in 30 mins.

rat aortic rings [3] = assay: Basal vascular tone of isolated rat aortic rings, isometric myograph
Experimental: An isometric myograph (DMT 620M) was used for ex vivo measurement of vascular function. Eight-to 10-week old Sprague Dawley rats (purchased from Charles River Laboratories, Wilmington, MA) were first anesthetized with 3% isoflurane and then euthanized using inhaled desflurane. The aortas were isolated in an ice-cold, oxygenated (95% O2, 5% CO2) Krebs-Henseleit buffer (118.3 mM NaCl, 4.7 mM KCl, 1.2 mM MgSO4, 1.2 mM KH2PO4, 2.5 mM CaCl2, 25 mM NaHCO3, and 11.0 mM glucose; purchased from Sigma-Aldrich, St. Louis, MO). The thoracic aorta was carefully cleaned to remove perivascular fat and cut into 2-mm rings that were mounted between two stainless steel wires in the myograph chamber containing 8 mL of Krebs-Henseleit buffer in 95% O2 and 5% CO2 at 37° C. First, the rings were equilibrated in the chamber for 20 minutes, followed by a gradual increase of mechanical stretch until a final stretch of 10 mN (Newton) was reached. After an additional incubation with fresh buffer for 30 minutes, the rings were constricted with 8 mL of 80 mM KPSS (43 mM NaCl, 80 mM KCl, 2.5 mM CaCl2, 1.2 mM MgSO4, 1.2 mM KH2PO4, 25.0 mM NaHCO3, and 11.0 mM glucose) for 15 to 20 minutes, followed by 3 washes with the Krebs-Henseleit buffer until the force returned to the baseline stretch. The tension of the aortic rings was continuously measured with the Lab Chart 7 data acquisition system (ADInstruments, Colorado Springs, CO). In Some of the experiments the aortic rings were pre-treated with 100 μM N(gamma)-nitro-L-arginine methyl ester (L-NAME; Sigma-Aldrich) and 10 μM indomethacin for 10 minutes prior to the pre-incubation with CFZ (Amgen Inc.) for 2 hours. After an additional incubation with fresh buffer for 30 minutes, the rings were constricted with 8 mL of 80 mM KPSS (43 mM NaCl, 80 mM KCl, 2.5 mM CaCl2, 1.2 mM MgSO4, 1.2 mM KH2PO4, 25.0 mM NaHCO3, and 11.0 mM glucose) for 15 to 20 minutes, followed by 3 washes with the Krebs-Henseleit buffer until the force returned to the baseline stretch. The tension of the aortic rings was continuously measured with the Lab Chart 7 data acquisition system (ADInstruments, Colorado Springs, CO).
To assess the effect of CFZ on vascular contraction, the aortic rings were pre-treated with or without CFZ for 2 hours, followed by treatment with an increasing concentration of phenylephrine (PE) from 10 nM to 1 μM. After the maximum contraction was achieved, the aortic rings were washed 3 times until the force returned to baseline. The contraction was continuously measured and plotted as percent contraction normalized to the response of KPSS. […] The relaxation was continuously measured and plotted as percent relaxation normalized to the response with 1 μM PE. […]

[4] = Highest applicable CFZ concentration in the myograph chamber (saturation, precipitation); assay type: physicochemical; conditions: oxygenated myograph chamber, Krebs-Henseleit buffer
VASP = assay: Western blot of p-VASP (S239) in rat thoracic aortic tissue; conditions: CFZ treatment vs vehicle control (FIG. 6A)
Experimental: Each cell pellet was lysed in 50 to 70 μL RIPA buffer (Cell Signaling Technology, Danvers, MA) with the Halt™ protease and phosphatase inhibitor cocktail (Thermo Fisher Scientific). Lysates were quantitated and loaded onto the Li-COR Western blot system. Antibodies specific to phosphorylated eNOS and eNOS from Thermo Fisher Scientific, anti-Guanylyl Cyclase β1 (ER-19) (Sigma-Aldrich), and β-Actin (Sigma-Aldrich) were diluted 1:1000 for Western blot. Antibodies specific to p-VASP, VASP, and GADPH-HRP were purchased from Cell Signaling Technology. […] The number of measurements is indicated by “n.” #denotes P<0.05 (red vs. blue).

rat aortic rings [5] = assay: Acetylcholine-induced relaxation of phenylephrine-precontracted rat aortic rings
Experimental: For assessment of the effect of CFZ on vascular relaxation, the pre-treated aortic rings were incubated with 1 μM PE for 20 minutes to induce contraction. For experiments involving sildenafil and tadalafil, a 10-minute pre-treatment with 30 nM of these smooth muscle relaxants was done prior to the incubation with CFZ. After reaching a stable contraction, ACh, sodium nitroprusside (SNP), nifedipine, riociguat, or cinaciguat was added to the chamber at an increasing concentration from 100 pM to 10 μM; each stepwise concentration increase was added after the response to the current concentration reached a plateau. The relaxation was continuously measured and plotted as percent relaxation normalized to the response with 1 μM PE.
Aortas were isolated from 8-10 week old CD® (Sprague Dawley) rats (from Charles River Laboratories) in an ice-cold, oxygenated (95% O2, 5% CO2) Krebs-Henseleit buffer. The aortas were then carefully cleaned to remove perivascular fat and cut into 2-mm rings that were mounted between two stainless steel wires in the myograph chamber containing 8 mL of Krebs-Henseleit buffer in 95% O2 and 5% CO2 at 37° C. Rings were stretch until a final stretch of 10 mN (Newton) was reached and incubated for 30 mins for equilibration.

rat aortic rings [6] = assay: Vasopressor-induced contraction of rat aortic rings, myograph
Experimental: as §1, §2

[7] = tested on: isolated rabbit hearts and aortic strips; conditions: cited from earlier work

highest CFZ concentration that could be applied; further increase gave saturated solution and precipitation [4]: 2.7 µM
EC50 for ACh-induced relaxation, CFZ alone (rat aortic rings [5]; FIG. 5B experiment, vehicle alone 1.9×10^−8): 7.3×10^−8
EC50 for ACh-induced relaxation (rat aortic rings [5]; in the presence of CFZ 2.7 μM, vehicle alone 3.2×10^−8 (FIG. 2A)): 1.4×10 ^−7
Compound: CC(C)C[C@H](NC(=O)[C@H](CCc1ccccc1)NC(=O)CN1CCOCC1)C(=O)N[C@@H](Cc1ccccc1)C(=O)N[C@@H](CC(C)C)C(=O)[C@@]1(C)CO1 [CFZ, carfilzomib]
effect on vascular relaxation in the presence of nifedipine (rat aortic rings [1]): did not appear to significantly affect vascular relaxation
angiotensin induced contraction, area under the curve (rat aortic rings [2]): increased angiotensin induced contraction
percent contraction under eNOS inhibition (limited NO availability) (rat aortic rings [3]; 100 μM L-NAME and 10 μM indomethacin 10 minutes prior to 2-hour CFZ treatment, vs vehicle (FIG. 1B)): significant but minor increase of percent contraction
vascular tone (contraction normalized to 80 mM KPSS) (rat aortic rings [3]; 100 μM LNAME+10 μM indomethacin, 2.7 μM CFZ for 3 hour, vs vehicle (FIG. 10)): increase in vascular tone compared to vehicle
percent contraction (basal vascular tone) (rat aortic rings [3]; rings pretreated with CFZ without L-NAME, compared with vehicle control (FIG. 1A)): did not affect vascular tone
level of p-VASP (VASP): reduced level of p-VASP compared with the vehicle control
effect on ACh-induced relaxation (percent relaxation) (rat aortic rings [5]; increasing CFZ concentrations, high concentrations of ACh (FIG. 2A)): significantly compromised
effect on phenylephrine-induced vascular contraction (rat aortic rings [6]; CFZ 0.3, 0.9 or 2.7 μM, increasing phenylephrine (FIG. 1C)): No significant CFZ effect on vascular contraction
effect on potassium chloride-induced vascular contraction (rat aortic rings [6]; CFZ vs vehicle, increasing potassium chloride (FIG. 1D)): No significant CFZ effect on vascular contraction
coronary perfusion pressure, resting vascular tone, and spasmogenic effects [7]: increased
vasodilating effect induced by acetylcholine (ACh) [7]: sharply reduced
